{"source": "patent US9714288B2", "about": "“Antisense compounds and uses thereof” (The Regents of the University of California, priority 2014, dated 2017)", "key": {"Reh cells": {"system": "Reh cells", "test": "Reh cell growth, number of live cells (MTT assay)", "type": "cell-based, human", "settings": "for IC50: Homo sapiens, experimentally determined, Reh cells; for Average number of live cells × 10^3: Table 9, Reh cells, conjugate 2 μM oligonucleotide, Doxorubicin 2.56 ng/mL, Vincristine 1.18 ng/mL"}, "[1]": {"test": "Tolerability of antisense oligonucleotides in BALB/c mice", "type": "in vivo", "settings": "50 mg/kg s.c. twice per week for three weeks, #1 most favorable, #13 least favorable", "experimental": "Selected antisense oligonucleotides were then tested for tolerability in vivo. Six week old, male BALB/c mice were injected subcutaneously twice per week for three weeks with 50 mg/kg of an antisense oligonucleotide listed in Table 1 or with PBS. Each treatment group consisted of 4 animals. Two days following the final oligonucleotide administration, the mice were sacrificed and plasma transaminase levels, body weights, and organ weights were evaluated relative to the PBS treated group. Isis numbers 632417, 632461, and 632640 had the most favorable tolerability rankings and were selected as leads. Isis No. 632461 targets human, mouse, and monkey MXD3 sequences with no mismatches and was chosen for use in further studies."}, "MXD3 mRNA": {"system": "MXD3 mRNA", "test": "MXD3 mRNA levels in K-562 cells by quantitative real-time PCR", "type": "cell-based, human", "settings": "for MXD3 mRNA at 10 μM oligonucleotide (% control): K-562 cells electroporated with 10 μM, ~24 hours, relative to untreated control; for IC50: K-562 cells, MXD3 mRNA, 0-35.0 μM, approximate values", "from_the_text": "Several hundred antisense oligonucleotides that target human MAX Dimerization Protein 3 (MXD3), GENBANK accession number NT_023133.13 truncated 21540000 to 21577000, SEQ ID NO: 1, were synthesized using standard solid phase oligonucleotide synthetic methods. They are chimeric oligonucleotides (“gapmers”) 16 nucleotides in length, composed of a central “gap” region consisting of 10 2′-deoxynucleotides, which is flanked on both sides (5′ and 3′) by three-nucleotide “wings”. The wings are composed of 4′-CH(CH3)—O-2′ modified nucleotides, also known as constrained ethyl or (S)-cEt nucleotides. The internucleoside (backbone) linkages are phosphorothioate throughout the oligonucleotides. All cytosine residues are 5-methylcytosines. The sequences of selected MXD3 targeting antisense oligonucleotides and their start and stop sites along GENBANK accession number NT_023133.13 truncated 21540000 to 21577000 are shown in Table 1 below.\nThe antisense oligonucleotides were analyzed for their effects on target mRNA levels. K-562 cells were plated at a density of 50,000 cells per well in 96-well plates and were electroporated with 10 μM oligonucleotide or with no oligonucleotide for untreated controls. After approximately 24 hours, RNA was isolated from the cells, and MXD3 mRNA levels were measured by quantitative real-time PCR using primer probe set RTS4263 (forward: 5′-[…]-3′, SEQ ID NO: 2; reverse: 5′-TGGCCAAGGGTTCCATGT-3′, SEQ ID NO: 3; probe: 5′-CTGCAGCCGCTTGCTCCGG-3′, SEQ ID NO: 4). MXD3 mRNA levels were adjusted according to total RNA content, as measured by RIBOGREEN®. Results for selected oligonucleotides are presented as average percent MXD3 mRNA level, relative to untreated control cells, in Table 1.\nA subset of the MXD3 targeting antisense oligonucleotides were selected for dose response analysis in K-562 cells. Cells were electroporated with 0, 2.19, 8.75, or 35.0 μM antisense oligonucleotide and analyzed as described above. Results for selected oligonucleotides are presented as approximate IC50 values in Table 1."}}, "note": "Oligonucleotides are written 5' to 3', each unit as a sugar letter and its base; * is a phosphorothioate linkage, no mark a phosphodiester; rarer units and linkages stand in square brackets, end groups in braces. Plain capitals give the bases only. k = constrained ethyl (cEt); [5mC] = 5-methylcytosine; d = 2'-deoxy (DNA)"}
{"compound": "COc1cccc2c1C(=O)c1c(O)c3c(c(O)c1C2=O)C[C@@](O)(C(=O)CO)C[C@@H]3O[C@H]1C[C@H](N)[C@H](O)[C@H](C)O1", "note": "[Doxo, Doxorubicin]", "values": [{"measurement": "IC50", "setting": "Reh cells", "result": 2.56, "unit": "ng/mL"}, {"measurement": "Average number of live cells × 10^3", "setting": "Reh cells; 4 hours", "result": "22.3 × 10^3"}, {"measurement": "Average number of live cells × 10^3", "setting": "Reh cells; 8 hours", "result": "22.9 × 10^3"}, {"measurement": "Average number of live cells × 10^3", "setting": "Reh cells; 24 hours", "result": "30 × 10^3"}, {"measurement": "Average number of live cells × 10^3", "setting": "Reh cells; 48 hours", "result": "37 × 10^3"}, {"measurement": "Average number of live cells × 10^3", "setting": "Reh cells; 72 hours", "result": "41.8 × 10^3"}]}
{"compound": "632407 (antisense k[5mC]*kA*kT*d[5mC]*d[5mC]*dA*d[5mC]*d[5mC]*d[5mC]*dA*d[5mC]*dG*d[5mC]*k[5mC]*kG*kG) [compound 632407]", "values": [{"measurement": "Ranking (tolerability)", "setting": "[1]", "result": 12}, {"measurement": "MXD3 mRNA at 10 μM oligonucleotide (% control)", "setting": "MXD3 mRNA", "result": 60.5, "unit": "% control"}, {"measurement": "IC50", "setting": "MXD3 mRNA", "result": 1.64, "unit": "µM"}]}
{"compound": "CC[C@]1(O)C[C@H]2CN(CCc3c([nH]c4ccccc34)[C@@](C(=O)OC)(c3cc4c(cc3OC)N(C=O)[C@H]3[C@@](O)(C(=O)OC)[C@H](OC(C)=O)[C@]5(CC)C=CCN6CC[C@]43[C@@H]65)C2)C1", "note": "[Vcr, Vincristine]", "values": [{"measurement": "IC50", "setting": "Reh cells", "result": 1.18, "unit": "ng/mL"}, {"measurement": "Average number of live cells × 10^3", "setting": "Reh cells; 4 hours", "result": "20.2 × 10^3"}, {"measurement": "Average number of live cells × 10^3", "setting": "Reh cells; 8 hours", "result": "19.6 × 10^3"}, {"measurement": "Average number of live cells × 10^3", "setting": "Reh cells; 24 hours", "result": "27.8 × 10^3"}, {"measurement": "Average number of live cells × 10^3", "setting": "Reh cells; 48 hours", "result": "33.1 × 10^3"}, {"measurement": "Average number of live cells × 10^3", "setting": "Reh cells; 72 hours", "result": "34.8 × 10^3"}]}
{"compound": "632669 (antisense kT*kA*kA*dA*d[5mC]*dA*d[5mC]*dT*dT*dG*dT*d[5mC]*dA*kG*kA*kG) [compound 632669]", "values": [{"measurement": "Ranking (tolerability)", "setting": "[1]", "result": 4}, {"measurement": "MXD3 mRNA at 10 μM oligonucleotide (% control)", "setting": "MXD3 mRNA", "result": 34.0, "unit": "% control"}, {"measurement": "IC50", "setting": "MXD3 mRNA", "result": 9.05, "unit": "µM"}]}
{"compound": "632682 (antisense kG*kT*k[5mC]*dA*dT*dT*d[5mC]*dA*dA*d[5mC]*dA*dA*dG*kA*kA*kG) [compound 632682]", "values": [{"measurement": "Ranking (tolerability)", "setting": "[1]", "result": 11}, {"measurement": "MXD3 mRNA at 10 μM oligonucleotide (% control)", "setting": "MXD3 mRNA", "result": 28.4, "unit": "% control"}, {"measurement": "IC50", "setting": "MXD3 mRNA", "result": 5.61, "unit": "µM"}]}
{"compound": "632460 (antisense kA*kT*kA*dA*d[5mC]*d[5mC]*dA*dT*dG*d[5mC]*dT*d[5mC]*dG*kG*k[5mC]*k[5mC]) [compound 632460]", "values": [{"measurement": "Ranking (tolerability)", "setting": "[1]", "result": 13}, {"measurement": "MXD3 mRNA at 10 μM oligonucleotide (% control)", "setting": "MXD3 mRNA", "result": 59.0, "unit": "% control"}, {"measurement": "IC50", "setting": "MXD3 mRNA", "result": 2.95, "unit": "µM"}]}
{"compound": "632640 (antisense k[5mC]*kA*kA*dG*d[5mC]*dA*dA*d[5mC]*dA*dA*dG*dT*dG*kG*kG*k[5mC]) [compound 632640]", "values": [{"measurement": "Ranking (tolerability)", "setting": "[1]", "result": 3}, {"measurement": "MXD3 mRNA at 10 μM oligonucleotide (% control)", "setting": "MXD3 mRNA", "result": 65.6, "unit": "% control"}, {"measurement": "IC50", "setting": "MXD3 mRNA", "result": 0.38, "unit": "µM"}]}
{"compound": "632673 (antisense k[5mC]*kA*k[5mC]*dA*dT*d[5mC]*dA*dT*d[5mC]*d[5mC]*dA*dT*d[5mC]*k[5mC]*kG*kA) [compound 632673]", "values": [{"measurement": "Ranking (tolerability)", "setting": "[1]", "result": 7}, {"measurement": "MXD3 mRNA at 10 μM oligonucleotide (% control)", "setting": "MXD3 mRNA", "result": 27.5, "unit": "% control"}, {"measurement": "IC50", "setting": "MXD3 mRNA", "result": 5.58, "unit": "µM"}]}
{"compound": "632528 (antisense kA*kG*kG*dA*dA*d[5mC]*dA*dT*d[5mC]*dA*dT*dA*dG*k[5mC]*k[5mC]*kA) [compound 632528]", "values": [{"measurement": "Ranking (tolerability)", "setting": "[1]", "result": 5}, {"measurement": "MXD3 mRNA at 10 μM oligonucleotide (% control)", "setting": "MXD3 mRNA", "result": 63.6, "unit": "% control"}, {"measurement": "IC50", "setting": "MXD3 mRNA", "result": 5.89, "unit": "µM"}]}
{"compound": "632461 (antisense k[5mC]*kA*k[5mC]*dA*dG*dG*dG*dA*d[5mC]*dG*d[5mC]*dA*dT*kA*kA*k[5mC]) [compound 632461]", "values": [{"measurement": "Ranking (tolerability)", "setting": "[1]", "result": 2}, {"measurement": "MXD3 mRNA at 10 μM oligonucleotide (% control)", "setting": "MXD3 mRNA", "result": 59.8, "unit": "% control"}, {"measurement": "IC50", "setting": "MXD3 mRNA", "result": 8.99, "unit": "µM"}]}
{"compound": "632672 (antisense kA*kT*k[5mC]*d[5mC]*dA*dT*d[5mC]*d[5mC]*dG*dA*dG*dA*dA*k[5mC]*k[5mC]*kA) [compound 632672]", "values": [{"measurement": "Ranking (tolerability)", "setting": "[1]", "result": 6}, {"measurement": "MXD3 mRNA at 10 μM oligonucleotide (% control)", "setting": "MXD3 mRNA", "result": 50.3, "unit": "% control"}, {"measurement": "IC50", "setting": "MXD3 mRNA", "result": 4.76, "unit": "µM"}]}
{"compound": "632527 (antisense k[5mC]*kA*kT*d[5mC]*dA*dT*dA*dG*d[5mC]*d[5mC]*dA*dG*dG*k[5mC]*kG*k[5mC]) [compound 632527]", "values": [{"measurement": "Ranking (tolerability)", "setting": "[1]", "result": 8}, {"measurement": "MXD3 mRNA at 10 μM oligonucleotide (% control)", "setting": "MXD3 mRNA", "result": 76.5, "unit": "% control"}, {"measurement": "IC50", "setting": "MXD3 mRNA", "result": 9.23, "unit": "µM"}]}
{"compound": "632634 (antisense kG*kG*kA*dT*dT*dA*d[5mC]*dT*dG*dT*d[5mC]*d[5mC]*dT*kA*kG*kG) [compound 632634]", "values": [{"measurement": "Ranking (tolerability)", "setting": "[1]", "result": 10}, {"measurement": "MXD3 mRNA at 10 μM oligonucleotide (% control)", "setting": "MXD3 mRNA", "result": 47.4, "unit": "% control"}, {"measurement": "IC50", "setting": "MXD3 mRNA", "result": 5.71, "unit": "µM"}]}
{"compound": "632424 (antisense kA*kG*k[5mC]*d[5mC]*dG*d[5mC]*dA*dG*d[5mC]*d[5mC]*d[5mC]*dA*d[5mC]*k[5mC]*k[5mC]*kT) [compound 632424]", "values": [{"measurement": "Ranking (tolerability)", "setting": "[1]", "result": 9}, {"measurement": "MXD3 mRNA at 10 μM oligonucleotide (% control)", "setting": "MXD3 mRNA", "result": 94.4, "unit": "% control"}, {"measurement": "IC50", "setting": "MXD3 mRNA", "result": 1.64, "unit": "µM"}]}
{"compound": "632417 (antisense kG*kG*k[5mC]*d[5mC]*d[5mC]*dT*dG*dG*dA*dG*d[5mC]*dG*dA*kA*k[5mC]*k[5mC]) [compound 632417]", "values": [{"measurement": "Ranking (tolerability)", "setting": "[1]", "result": 1}, {"measurement": "MXD3 mRNA at 10 μM oligonucleotide (% control)", "setting": "MXD3 mRNA", "result": 38.3, "unit": "% control"}, {"measurement": "IC50", "setting": "MXD3 mRNA", "result": 7.05, "unit": "µM"}]}
